From patent US20240252596A1, “Injectable Polymeric Biopharmaceutical Formulations” (The Board of Trustees of the Leland Stanford Junior …, priority 2023, published 2024)

What was measured:
[1] = Syringe force measurements of liquid carriers alone after 48 h; format: physicochemical; settings: media alone in syringe, after 48 h at ambient temperature
Protocol: To investigate the syringe force profile for various liquid carriers in syringes (e.g., break loose (initiating) force, and the glide (sustaining) force), the following media alone were loaded into syringes in duplicate (n=2): • 1. triacetin (100%) • 2. benzyl benzoate (100%) • 3. Miglyol 810 (100%) • 4. Miglyol 840 (100%) • 5. benzyl alcohol (100%) • 6. ethyl oleate (100%).
The above syringes were stored for 48 h at ambient temperature, protected from light.
Syringe force measurements (n=2) were conducted on each media after 48 h.

[2] = as above; format: physicochemical; settings: vehicle
[3] = Parameters of liquid carriers (density, viscosity, vapor pressure); settings: liquid carrier
Protocol: (§1) To investigate the liquid carrier component of the subject compositions, a number of solvents were tested for their suspension performance characteristics.

[4] = Liquid carrier studies: suspension performance of BSA/MoNi (5%) microparticles at 460 mg/mL; settings: for Suspension Performance: BSA/MoNi (5%) microparticles dispersed at 460 mg/mL in the media; for Additional comments (consistency on dispersion, stability of suspension): BSA/MoNi (5%) microparticles dispersed in the media; for time until suspension hardens: sealed in a glass container with parafilm
Protocol: as §1

[5] = system: SKH1-E mice; assay: Tolerability screen: subcutaneous injection of solvent or solvent blend, adverse skin reaction; format: in vivo; settings: 10 uL s.c.
Protocol: SKH1-E mice were subcutaneously administered 10 μL of solvent or solvent blend with triacetin (no protein). […] Volume of solvent injected was 2× the solvent volume that would be administered to a mouse in a paste.
Degree of adverse skin reaction was quantified using the grading scale of Table 5: […]

SMILES	Break loose (N), n = 2 [1]	Glide force (N), n = 2 [1]	Viscosity (cp)* [2]	Density [3]	Vapor pressure [3]	Viscosity (@25 C.) [3]	Suspension Performance [4]	Additional comments (consistency on dispersion, stability of suspension) [4]	time until suspension hardens [4]	skin reaction [5]
OCc1ccccc1 [Benzyl Alcohol (BA), Benzyl Alcohol]	4.8 N	2.5 N	5 cp	1.04 g/mL	12 Pa	5.4	+	Forms very low viscosity		
O=C(OCc1ccccc1)c1ccccc1 [Benzyl benzoate]	5.7 N	3.5 N	8-9 cp	1.11 g/mL		8.29	+	Forms a low viscosity solution		
C[S+](C)[O-] [Dimethyl sulfoxide (DMSO), Dimethyl sulfoxide]				1.09 g/mL	80 Pa	2.0		quickly hardens into a flaky	paste (within 1 hour when sealed	
CCO [Ethyl alcohol]				0.79 g/mL		1.07		Clumps immediately, cannot		
CN1CCCC1=O [N-methyl-2-pyrrolidone (NMP), N-methyl-2-pyrrolidone]				1.03 g/mL	45 Pa	1.89	+/−	Forms very low viscosity		
CC(O)CO (stereo not drawn) [Propylene glycol (PG), Propylene glycol]				1.03 g/mL	11 Pa	48.6		quickly hardens into a sticky	rock (within a couple hours	
CC(=O)OCC(COC(C)=O)OC(C)=O [Triacetin]	8.1 N	6.1 N	23 cp	1.16 g/mL	0.267 Pa	23	++	A very good non-solvent. Shows		no skin swelling or redness
CCCCCCCC/C=C\CCCCCCCC(=O)OCC [ethyl oleate]	4.2 N	3.2 N	6 cp							
